Test system: 361931-004-R-J1-PDC multicell spheroid viability
Assay: Anticancer human tumor 361931-004-R-J1-PDC patient-derived colon adenocarcinoma cell line growth inhibition [PI3K]
Settings: for IC50: curve of first compound; for viability, T/C: stronger effect = lower value
Outline: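 Three cell types, namely tumor cells, endothelial cells and mesenchymal stem cells, formed each spheroid. Combinations with four PI3K inhibitors were screened at clinically achievable concentrations decreasing by half-log, and spheroid viability was recorded.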

[1] = second compound 0.00316 µM, first compound 0.0316 µM
[2] = second compound 0.00316 µM, first compound 0.1 µM
[3] = second compound 0.00316 µM, first compound 0.316 µM
[4] = second compound 0.00316 µM, first compound 1 µM
[5] = second compound 0.00316 µM, first compound 3.16 µM
[6] = second compound 0.00316 µM, first compound 10 µM
[7] = second compound 0.01 µM, first compound 0.0316 µM
[8] = second compound 0.01 µM, first compound 0.1 µM
[9] = second compound 0.01 µM, first compound 0.316 µM
[10] = second compound 0.01 µM, first compound 1 µM
[11] = second compound 0.01 µM, first compound 3.16 µM
[12] = second compound 0.01 µM, first compound 10 µM
[13] = second compound 0.0316 µM, first compound 0.0316 µM
[14] = second compound 0.0316 µM, first compound 0.1 µM
[15] = second compound 0.0316 µM, first compound 0.316 µM
[16] = second compound 0.0316 µM, first compound 1 µM
[17] = second compound 0.0316 µM, first compound 3.16 µM
[18] = second compound 0.0316 µM, first compound 10 µM
[19] = second compound 0.1 µM, first compound 0.0316 µM
[20] = second compound 0.1 µM, first compound 0.1 µM
[21] = second compound 0.1 µM, first compound 0.316 µM
[22] = second compound 0.1 µM, first compound 1 µM
[23] = second compound 0.1 µM, first compound 3.16 µM
[24] = second compound 0.1 µM, first compound 10 µM
[25] = second compound 0.316 µM, first compound 0.0316 µM
[26] = second compound 0.316 µM, first compound 0.1 µM
[27] = second compound 0.316 µM, first compound 0.316 µM
[28] = second compound 0.316 µM, first compound 1 µM
[29] = second compound 0.316 µM, first compound 3.16 µM
[30] = second compound 0.316 µM, first compound 10 µM
[31] = second compound 1 µM, first compound 0.0316 µM
[32] = second compound 1 µM, first compound 0.1 µM
[33] = second compound 1 µM, first compound 0.316 µM
[34] = second compound 1 µM, first compound 1 µM
[35] = second compound 1 µM, first compound 3.16 µM
[36] = second compound 1 µM, first compound 10 µM
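Also: spheroids exposed to agents for seven days before readout.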

C=CC(=O)N1CCN(c2nc(=O)n(-c3c(C)ccnc3C(C)C)c3nc(-c4c(O)cccc4F)c(F)cc23)C(C)C1 (stereo not given) + COc1c(OCCCN2CCOCC2)ccc2c3n(c(=NC(=O)c4cnc(N)nc4)nc12)CCN3
IC50 (second compound 0.00316 µM): > 10000 nM
IC50 (second compound 0.01 µM): > 10000 nM
IC50 (second compound 0.0316 µM): > 10000 nM
IC50 (second compound 0.1 µM): > 10000 nM
IC50 (second compound 0.316 µM): 31.6 nM
IC50 (second compound 1 µM): < 31.6 nM
viability, T/C [1]: 97.7%
viability, T/C [2]: 100%
viability, T/C [3]: 100%
viability, T/C [4]: 98.7%
viability, T/C [5]: 99.9%
viability, T/C [6]: 90.1%
viability, T/C [7]: 98%
viability, T/C [8]: 95%
viability, T/C [9]: 92.6%
viability, T/C [10]: 94.4%
viability, T/C [11]: 103%
viability, T/C [12]: 89%
viability, T/C [13]: 94.6%
viability, T/C [14]: 89.5%
viability, T/C [15]: 90.6%
viability, T/C [16]: 94.7%
viability, T/C [17]: 91.6%
viability, T/C [18]: 82.4%
viability, T/C [19]: 83.8%
viability, T/C [20]: 80.3%
viability, T/C [21]: 77.8%
viability, T/C [22]: 76%
viability, T/C [23]: 78.8%
viability, T/C [24]: 54.9%
viability, T/C [25]: 48.7%
viability, T/C [26]: 49.8%
viability, T/C [27]: 47.1%
viability, T/C [28]: 39.5%
viability, T/C [29]: 51.1%
viability, T/C [30]: 32.8%
viability, T/C [31]: 20.4%
viability, T/C [32]: 22.1%
viability, T/C [33]: 15.4%
viability, T/C [34]: 20.2%
viability, T/C [35]: 18.3%
viability, T/C [36]: 12.4%

CC(C)NCC(C(=O)N1CCN(c2ncnc3c2C(C)CC3O)CC1)c1ccc(Cl)cc1 (stereo not given) + COc1c(OCCCN2CCOCC2)ccc2c3n(c(=NC(=O)c4cnc(N)nc4)nc12)CCN3
IC50 (second compound 0.00316 µM): 3300 nM
IC50 (second compound 0.01 µM): 2880 nM
IC50 (second compound 0.0316 µM): 2370 nM
IC50 (second compound 0.1 µM): 1680 nM
IC50 (second compound 0.316 µM): 161 nM
IC50 (second compound 1 µM): < 31.6 nM
viability, T/C [1]: 102%
viability, T/C [2]: 97.8%
viability, T/C [3]: 95.2%
viability, T/C [4]: 86.9%
viability, T/C [5]: 50.9%
viability, T/C [6]: 19.5%
viability, T/C [7]: 99%
viability, T/C [8]: 100%
viability, T/C [9]: 90.9%
viability, T/C [10]: 78.7%
viability, T/C [11]: 46.9%
viability, T/C [12]: 26.6%
viability, T/C [13]: 95%
viability, T/C [14]: 89.8%
viability, T/C [15]: 94.2%
viability, T/C [16]: 70.6%
viability, T/C [17]: 43.6%
viability, T/C [18]: 25.7%
viability, T/C [19]: 89.9%
viability, T/C [20]: 76.9%
viability, T/C [21]: 71%
viability, T/C [22]: 60.5%
viability, T/C [23]: 39%
viability, T/C [24]: 21.9%
viability, T/C [25]: 58%
viability, T/C [26]: 52.3%
viability, T/C [27]: 47.4%
viability, T/C [28]: 36.8%
viability, T/C [29]: 34.5%
viability, T/C [30]: 21.3%
viability, T/C [31]: 26%
viability, T/C [32]: 21.8%
viability, T/C [33]: 20.8%
viability, T/C [34]: 20.4%
viability, T/C [35]: 17.6%
viability, T/C [36]: 11.6%

CCN1CCN(Cc2ccc(Nc3ncc(F)c(-c4cc(F)c5nc(C)n(C(C)C)c5c4)n3)nc2)CC1 + COc1c(OCCCN2CCOCC2)ccc2c3n(c(=NC(=O)c4cnc(N)nc4)nc12)CCN3
IC50 (second compound 0.00316 µM): > 1000 nM
IC50 (second compound 0.01 µM): > 1000 nM
IC50 (second compound 0.0316 µM): 864 nM
IC50 (second compound 0.1 µM): 223 nM
IC50 (second compound 0.316 µM): < 3.16 nM
IC50 (second compound 1 µM): < 3.16 nM
viability, T/C (second compound 0.00316 µM, first compound 0.00316 µM): 92.3%
viability, T/C (second compound 0.00316 µM, first compound 0.01 µM): 101%
viability, T/C [1]: 103%
viability, T/C [2]: 103%
viability, T/C [3]: 94.6%
viability, T/C [4]: 87.6%
viability, T/C (second compound 0.01 µM, first compound 0.00316 µM): 100%
viability, T/C (second compound 0.01 µM, first compound 0.01 µM): 95.1%
viability, T/C [7]: 94.4%
viability, T/C [8]: 85%
viability, T/C [9]: 77.2%
viability, T/C [10]: 64.5%
viability, T/C (second compound 0.0316 µM, first compound 0.00316 µM): 86.7%
viability, T/C (second compound 0.0316 µM, first compound 0.01 µM): 91.3%
viability, T/C [13]: 80.7%
viability, T/C [14]: 73.5%
viability, T/C [15]: 62.3%
viability, T/C [16]: 48.1%
viability, T/C (second compound 0.1 µM, first compound 0.00316 µM): 80.8%
viability, T/C (second compound 0.1 µM, first compound 0.01 µM): 74.3%
viability, T/C [19]: 60.3%
viability, T/C [20]: 54.3%
viability, T/C [21]: 51.2%
viability, T/C [22]: 39.9%
viability, T/C (second compound 0.316 µM, first compound 0.00316 µM): 50%
viability, T/C (second compound 0.316 µM, first compound 0.01 µM): 44.7%
viability, T/C [25]: 43.2%
viability, T/C [26]: 39.7%
viability, T/C [27]: 39%
viability, T/C [28]: 39.9%
viability, T/C (second compound 1 µM, first compound 0.00316 µM): 22.7%
viability, T/C (second compound 1 µM, first compound 0.01 µM): 21.8%
viability, T/C [31]: 18.7%
viability, T/C [32]: 22.2%
viability, T/C [33]: 30.3%
viability, T/C [34]: 32.1%

Cn1ncc(Cl)c1-c1cc(C(=O)NC(CN)Cc2cccc(F)c2)sc1Cl (stereo not given) + COc1c(OCCCN2CCOCC2)ccc2c3n(c(=NC(=O)c4cnc(N)nc4)nc12)CCN3
IC50 (second compound 0.00316 µM): 2520 nM
IC50 (second compound 0.01 µM): 1910 nM
IC50 (second compound 0.0316 µM): 1820 nM
IC50 (second compound 0.1 µM): 1570 nM
IC50 (second compound 0.316 µM): 49.1 nM
IC50 (second compound 1 µM): < 31.6 nM
viability, T/C [1]: 104%
viability, T/C [2]: 111%
viability, T/C [3]: 100%
viability, T/C [4]: 80.6%
viability, T/C [5]: 42.5%
viability, T/C [6]: 27.4%
viability, T/C [7]: 104%
viability, T/C [8]: 102%
viability, T/C [9]: 94.8%
viability, T/C [10]: 66.7%
viability, T/C [11]: 37.2%
viability, T/C [12]: 26.7%
viability, T/C [13]: 94.9%
viability, T/C [14]: 101%
viability, T/C [15]: 90.6%
viability, T/C [16]: 61.6%
viability, T/C [17]: 40.1%
viability, T/C [18]: 25.6%
viability, T/C [19]: 83.4%
viability, T/C [20]: 83.9%
viability, T/C [21]: 74.2%
viability, T/C [22]: 63%
viability, T/C [23]: 31.6%
viability, T/C [24]: 19%
viability, T/C [25]: 54.2%
viability, T/C [26]: 43.5%
viability, T/C [27]: 40.5%
viability, T/C [28]: 35.8%
viability, T/C [29]: 30.9%
viability, T/C [30]: 15.8%
viability, T/C [31]: 19.7%
viability, T/C [32]: 19.4%
viability, T/C [33]: 18.7%
viability, T/C [34]: 20.3%
viability, T/C [35]: 19.7%
viability, T/C [36]: 10.3%

Cn1nccc1Nc1nccc(-c2ccn(C(CO)c3ccc(Cl)c(F)c3)c(=O)c2)n1 (stereo not given) + COc1c(OCCCN2CCOCC2)ccc2c3n(c(=NC(=O)c4cnc(N)nc4)nc12)CCN3
IC50 (second compound 0.00316 µM): 9030 nM
IC50 (second compound 0.01 µM): 4530 nM
IC50 (second compound 0.0316 µM): 1490 nM
IC50 (second compound 0.1 µM): 450 nM
IC50 (second compound 0.316 µM): 32.5 nM
IC50 (second compound 1 µM): < 31.6 nM
viability, T/C [1]: 92.5%
viability, T/C [2]: 98.3%
viability, T/C [3]: 90.9%
viability, T/C [4]: 86.3%
viability, T/C [5]: 77%
viability, T/C [6]: 47.2%
viability, T/C [7]: 87.9%
viability, T/C [8]: 94.4%
viability, T/C [9]: 88.7%
viability, T/C [10]: 80.8%
viability, T/C [11]: 59.9%
viability, T/C [12]: 28.6%
viability, T/C [13]: 92%
viability, T/C [14]: 87.7%
viability, T/C [15]: 77.4%
viability, T/C [16]: 64%
viability, T/C [17]: 27.9%
viability, T/C [18]: 12.6%
viability, T/C [19]: 80.8%
viability, T/C [20]: 72.3%
viability, T/C [21]: 58.3%
viability, T/C [22]: 32.8%
viability, T/C [23]: 8.5%
viability, T/C [24]: 3.74%
viability, T/C [25]: 50.8%
viability, T/C [26]: 40.2%
viability, T/C [27]: 26.1%
viability, T/C [28]: 8.67%
viability, T/C [29]: 2.32%
viability, T/C [30]: 2.04%
viability, T/C [31]: 18.4%
viability, T/C [32]: 13.3%
viability, T/C [33]: 8.6%
viability, T/C [34]: 2.23%
viability, T/C [35]: 1.89%
viability, T/C [36]: 1.61%

From PubChem BioAssay AID1963979 (Molecular Pharmacology Branch, DTP, NCI, 2024)
